# Assay results published in ChEMBL document CHEMBL1201862, “PubChem BioAssay data set” (2004).
#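 Dose response: 5 concentrations. Exposure: 48 h. Format: 96-well plates. Endpoint: linear interpolation; highest concentration if not reached. At the GI50, growth is halved.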 Calls of active or inactive are those of the source. No stated cut-off is given here; in the data, active = GI50 up to about 1.1 µM and inactive = higher.
# Experiments:
# Assay in all cases: inhibition of tumour cell growth, NCI panel, 48 h
# ACHN = system: ACHN
# MDA-MB-231 = system: MDA-MB-231
# OVCAR-5 = system: OVCAR-5
# UO-31 = system: UO-31
# COLO 205 = system: COLO 205
# UACC-62 = system: UACC-62
# RPMI-8226 = system: RPMI-8226
# KM12 = system: KM12
# NCI/ADR-RES = system: NCI/ADR-RES
# EKVX = system: EKVX
# IGROV-1 = system: IGROV-1
# OVCAR-3 = system: OVCAR-3
# M14 = system: M14
# BT-549 = system: BT-549
# SK-MEL-2 = system: SK-MEL-2
# SNB-19 = system: SNB-19
# TK-10 = system: TK-10
# MDA-N = system: MDA-N
# DU-145 = system: DU-145
# NCI-H23 = system: NCI-H23
SMILES,GI50 (ACHN),GI50 (MDA-MB-231),GI50 (OVCAR-5),GI50 (UO-31),GI50 (COLO 205),GI50 (UACC-62),GI50 (RPMI-8226),GI50 (KM12),GI50 (NCI/ADR-RES),GI50 (EKVX),GI50 (IGROV-1),GI50 (OVCAR-3),GI50 (M14),GI50 (BT-549),GI50 (SK-MEL-2),GI50 (SNB-19),GI50 (TK-10),GI50 (MDA-N),GI50 (DU-145),GI50 (NCI-H23)
Cc1ccc2c(=O)c(C(=O)NNC(=S)NC3CCCCC3)c[nH]c2n1,96.4 µM (inactive),52.7 µM (inactive),> 100 µM (inactive),> 100 µM (inactive),64.6 µM (inactive),62.4 µM (inactive),42.8 µM (inactive),56.8 µM (inactive),> 100 µM (inactive),68.9 µM (inactive),35.6 µM (inactive),71.8 µM (inactive),53.2 µM (inactive),71.3 µM (inactive),65.9 µM (inactive),> 100 µM (inactive),> 100 µM (inactive),31.6 µM (inactive),> 100 µM (inactive),94.8 µM (inactive)
OC1COC(OCc2ccccc2)C(O)C1O (stereo not given),> 100 µM (inactive),> 100 µM (inactive),> 100 µM (inactive),> 100 µM (inactive),> 100 µM (inactive),> 100 µM (inactive),> 100 µM (inactive),> 100 µM (inactive),> 100 µM (inactive),> 100 µM (inactive),> 100 µM (inactive),> 100 µM (inactive),> 100 µM (inactive),> 100 µM (inactive),> 100 µM (inactive),> 100 µM (inactive),> 100 µM (inactive),> 100 µM (inactive),> 100 µM (inactive),> 100 µM (inactive)
CN(C)NC(=S)Nc1ccccc1Br,> 100 µM (inactive),> 100 µM (inactive),> 100 µM (inactive),> 100 µM (inactive),> 100 µM (inactive),> 100 µM (inactive),> 100 µM (inactive),> 100 µM (inactive),> 100 µM (inactive),> 100 µM (inactive),> 100 µM (inactive),> 100 µM (inactive),> 100 µM (inactive),> 100 µM (inactive),> 100 µM (inactive),> 100 µM (inactive),> 100 µM (inactive),> 100 µM (inactive),> 100 µM (inactive),> 100 µM (inactive)
COC(=O)CCCC(=O)NC1=C(NCc2ccccc2)C(=O)c2ccccc2C1=O,73.8 µM (inactive),50.1 µM (inactive),> 100 µM (inactive),> 100 µM (inactive),23.8 µM (inactive),29.2 µM (inactive),49.5 µM (inactive),53.7 µM (inactive),27.3 µM (inactive),51.4 µM (inactive),44.2 µM (inactive),23 µM (inactive),29.6 µM (inactive),28.6 µM (inactive),87.5 µM (inactive),> 100 µM (inactive),> 100 µM (inactive),41.4 µM (inactive),> 100 µM (inactive),53.2 µM (inactive)
COc1cc(C2c3cc4c(cc3OC(NCCO)C2C)OCO4)cc(OC)c1OC (stereo not given),0.755 µM (active),1.6 µM (inactive),7.48 µM (inactive),1.52 µM (inactive),0.526 µM (active),0.378 µM (active),0.389 µM (active),0.382 µM (active),0.807 µM (active),13.1 µM (inactive),0.687 µM (active),0.244 µM (active),0.27 µM (active),3.66 µM (inactive),3.42 µM (inactive),1.32 µM (inactive),15.9 µM (inactive),0.401 µM (active),0.678 µM (active),1.19 µM (inactive)
O=C(c1ccccc1)n1[nH]c(=O)n(-c2ccc(Cl)cc2)c1=O,> 100 µM (inactive),> 100 µM (inactive),> 100 µM (inactive),> 100 µM (inactive),> 100 µM (inactive),> 100 µM (inactive),> 100 µM (inactive),> 100 µM (inactive),> 100 µM (inactive),> 100 µM (inactive),> 100 µM (inactive),> 100 µM (inactive),> 100 µM (inactive),> 100 µM (inactive),> 100 µM (inactive),39 µM (inactive),> 100 µM (inactive),> 100 µM (inactive),> 100 µM (inactive),> 100 µM (inactive)
COc1c(CC=C(C)C)c(O)c(C(CC(C)C)c2c(O)c(CC=C(C)C)c(O)c(C(C)=O)c2O)c(O)c1C(C)=O (stereo not given),1.1 µM (active),1.64 µM (inactive),4.9 µM (inactive),3.08 µM (inactive),0.564 µM (active),0.527 µM (active),0.419 µM (active),0.998 µM (active),0.729 µM (active),1.04 µM (active),1.7 µM (inactive),1.15 µM (inactive),1.43 µM (inactive),1.62 µM (inactive),0.504 µM (active),1.15 µM (inactive),1.03 µM (active),2.16 µM (inactive),2.32 µM (inactive),0.275 µM (active)
O=CC(=C(I)I)c1ccccc1,3 µM (inactive),2.87 µM (inactive),6.75 µM (inactive),2.69 µM (inactive),2.51 µM (inactive),6.08 µM (inactive),0.977 µM (active),3.87 µM (inactive),14.6 µM (inactive),11.5 µM (inactive),4.06 µM (inactive),1.98 µM (inactive),1.75 µM (inactive),4.38 µM (inactive),6.49 µM (inactive),7.78 µM (inactive),2.45 µM (inactive),2.04 µM (inactive),7.45 µM (inactive),2.05 µM (inactive)
COc1cc(/C=C/c2ccccn2)cc(OC)c1OC,> 10 µM (inactive),> 10 µM (inactive),> 10 µM (inactive),> 10 µM (inactive),> 10 µM (inactive),> 10 µM (inactive),> 10 µM (inactive),> 10 µM (inactive),> 10 µM (inactive),> 10 µM (inactive),> 10 µM (inactive),> 10 µM (inactive),> 10 µM (inactive),> 10 µM (inactive),> 10 µM (inactive),> 10 µM (inactive),> 10 µM (inactive),> 10 µM (inactive),> 10 µM (inactive),> 10 µM (inactive)
O=C(Oc1c(Br)cc(Br)cc1C(=O)Oc1ccccc1)C(=O)Oc1c(Br)cc(Br)cc1C(=O)Oc1ccccc1,27.7 µM (inactive),12.1 µM (inactive),24.4 µM (inactive),16 µM (inactive),21.6 µM (inactive),24.8 µM (inactive),15.5 µM (inactive),24 µM (inactive),38.9 µM (inactive),26.2 µM (inactive),26.7 µM (inactive),24.3 µM (inactive),34.1 µM (inactive),18.5 µM (inactive),26.7 µM (inactive),20 µM (inactive),49.2 µM (inactive),27.5 µM (inactive),37.5 µM (inactive),0.621 µM (active)
O=C(O)c1ccc(C(=O)Nc2cccc3ccccc23)c(C(=O)O)c1,> 100 µM (inactive),> 100 µM (inactive),> 100 µM (inactive),> 100 µM (inactive),> 100 µM (inactive),> 100 µM (inactive),> 100 µM (inactive),> 100 µM (inactive),> 100 µM (inactive),> 100 µM (inactive),> 100 µM (inactive),> 100 µM (inactive),> 100 µM (inactive),> 100 µM (inactive),> 100 µM (inactive),> 100 µM (inactive),> 100 µM (inactive),> 100 µM (inactive),> 100 µM (inactive),> 100 µM (inactive)
CC1(Cc2cc3c(cc2C2(c4ccc([N+](=O)[O-])cc4)OCCO2)OCO3)OCCO1,93.3 µM (inactive),52.6 µM (inactive),> 100 µM (inactive),34.3 µM (inactive),67.6 µM (inactive),36 µM (inactive),27.3 µM (inactive),72.3 µM (inactive),87.9 µM (inactive),> 100 µM (inactive),51.1 µM (inactive),69.2 µM (inactive),> 100 µM (inactive),29.6 µM (inactive),68.4 µM (inactive),> 100 µM (inactive),> 100 µM (inactive),> 100 µM (inactive),> 100 µM (inactive),55.2 µM (inactive)
CC(=O)OCC1OC(O[C@H]2C=C[C@@H](C(=O)OCc3ccccc3)n3c(=O)n(-c4ccccc4)c(=O)n32)C(OC(C)=O)C(OC(C)=O)C1OC(C)=O (stereo not given in full),1.71 µM (inactive),1.89 µM (inactive),2.23 µM (inactive),1.57 µM (inactive),2 µM (inactive),1.59 µM (inactive),0.879 µM (active),3.27 µM (inactive),3.2 µM (inactive),1.95 µM (inactive),2.34 µM (inactive),1.79 µM (inactive),1.78 µM (inactive),1.8 µM (inactive),4.66 µM (inactive),15.7 µM (inactive),2.02 µM (inactive),2.77 µM (inactive),2.61 µM (inactive),2.96 µM (inactive)
Nc1nc(Cl)c(N)c(NCC2(CO)CCC(CCc3ccccc3)C2)n1 (stereo not given),18.7 µM (inactive),17 µM (inactive),20.9 µM (inactive),18.4 µM (inactive),9.93 µM (inactive),12.1 µM (inactive),14.3 µM (inactive),13.4 µM (inactive),> 39.5 µM (inactive),3.15 µM (inactive),22.8 µM (inactive),18.7 µM (inactive),13.1 µM (inactive),11.1 µM (inactive),15.7 µM (inactive),25.7 µM (inactive),21.3 µM (inactive),15.2 µM (inactive),21.4 µM (inactive),0.0435 µM (active)
